Consider five compounds from EP0180416A2, “Benzoic acid analogues and their production” (Takeda Chemical Industries, Ltd., priority 1984, dated 1986).

Counter-ions that a name gives are not always drawn.

The subject of data set [1] is synthetic leukotriene D4 (LTD4). The data set can be described thus: Bronchoconstriction due to LTD4 in guinea pigs (Konzett-Rossler method). Particulars: Cavia porcellus, 1 h; 50% inhibitory dose; oral, one hour before LTD4 (10 ug/kg i.v.); inhibition of overflow volume at maximal response; anesthetized guinea pigs; read-out: ID50(p.o.). The format is in vivo, Guinea pigs of Hartley strain. The protocol:
Guinea pigs of Hartley strain, both male and female, with body weights about 400 g were assigned to groups of 6 to 10 individuals, and the bronchoconstriction due to LTD4 was measured according to the method of Konzett-Rossler [Konzett, H. and ROssler, R.: Naunyn-Schmiedebergs Archiv far Experimentelle Pathologie und Pharmakologie 195, 71-74 (1940)]. Each guinea pig was fixed in a supine position under urethane anesthesia (1.5 g/kg, intraperitoneal) and the trachea was incised and connected to an artificial respiration apparatus, Rodent Respirator Model 680 [Harvard Apparatus Company, U.S.A.] via a cannula. The branch tube of this tracheal cannula was connected to a Bronchospasm Transducer Model 7020 [Ugobasil Biological Researach Apparatus, Italy]. Under the conditions of 4 to 7 ml of air per stroke, 70 strokes per minute and a lung loading pressure of 10 cm H2O, the volume of overflowing air was recorded on a Rectigraph-8S (Sanei Sokki Ltd., Japan) via a transducer. After administration of gallamine·triethiodide (1 mg/kg, i.v.), a solution of LTD4 in physiological saline (10 ug/kg) was intravenously administered and the bronchoconstriction elicited thereby was recorded for 15 minutes. The compound was used as suspended in a 5% solution of gum arabic or dissolved in water, and administered orally in a volume of 0.2 ml per 100 g body weight one hour before LTD4 loading. LTD4 was administered through a cannula inserted into the jugular vein. LTD4 was used as dissolved in physiological saline, which was taken from a stock stored in methanol (1 mg/l mℓ methanol) at -70°C.

The next data set deals with mice. The data set can be described thus: Acute toxicity in mice. Particulars: 2000 mg/kg, male mice; for symptoms after oral administration (acute toxicity): suspended in 5% gum arabic; for autopsy findings: oral, autopsy after 7 days. Type of data set: in vivo, mice of Jcl:ICR strain. As to the method: Five 5-week-old male mice of Jcl:ICR strain, weighing about 30 g each, were used. Compound (I)-2 or (I)-4 was suspended in a 5% solution of gum arabic and administered orally at the level of 0.2 ml per 10 grams body weight.

For the compound `CCCc1c(OCCCOc2ccc(C(=O)OCCN(C)C)cc2Br)ccc(C(C)=O)c1O` [(I)-1, 2-(N,N-dimethylamino)ethyl 4-[3-(4-acetyl-3-hydroxy-2-propylphenoxy)propoxy]-3-bromobenzoate·hydrochloride·monohydrate], the ED50 in data set [1] is 49 µmol/kg. `CCCc1c(OCCCOc2ccc(C(=O)OCCN3CCOCC3)cc2Br)ccc(C(C)=O)c1O` [(I)-2, 2-morpholinoethyl 4-[3-(4-acetyl-3-hydroxy-2-propylphenoxy)propoxy]-3-bromobenzoate]: in the data set with mice, the “symptoms after oral administration (acute toxicity)” value is “no symptoms” and the autopsy findings entry is on record as “did not reveal any abnormalities”. For the same compound, the ED50 in data set [1] was 41 µmol/kg. As to `CCCc1c(OCCCOc2ccc(C(=O)OCCN3CCN(C)CC3)cc2Br)ccc(C(C)=O)c1O` [(I)-3, 2-(4-methyl-l-piperazinyl)ethyl 4-[3-(4-acetyl-3-hydroxy-2-propylphenoxy)propoxy]-3-bromobenzoate· dihydrochloride·monohydrate], in data set [1], the ED50 came out at 49 µmol/kg. `CCCc1c(OCCCOc2ccc(C(=O)OCCCN(C)C)cc2Br)ccc(C(C)=O)c1O` [(I)-4, 3-(N,N-dimethylamino)propyl 4-[3-(4-acetyl-3-hydroxy-2-propylphenoxy)propoxy]-3-bromobenzoate]: in the data set on mice, the “symptoms after oral administration (acute toxicity)” value is on record as “no symptoms” and the autopsy findings entry is given as “did not reveal any abnormalities”. Besides, in data set [1], the ED50 was found to be 52 µmol/kg.

`CCCc1c(OCCCOc2ccc(C(=O)O)cc2Br)ccc(C(C)=O)c1O` [Control compound (A), 4-[3-(4-acetyl-3-hydroxy-2-propylphenoxy)propoxy]-3-bromobenzoic acid, reference compound]: in data set [1], the ED50 is 146 µmol/kg.
